Measured values taken from US20210361566A1, “FORMULATIONS OF 5-HYDROXY TRYPTOPHAN (5-HTP) FOR BETTER BIOAVAILABILITY FOR VARIOUS INDICATIONS” (National University of Singapore, priority 2018, published 2021).

Key:
[1] = Absolute and regional intestinal bioavailability of 5-HTP in humans (oral, colonic, intravenous dosing; plasma LC-MS); type: in vivo; conditions: both sexes, other: colonic (by colonoscopy), human, colonic 200 mg vs IV 50 mg, read-out: absolute bioavailability (F), colonic dosing
Method: Determination of absolute and regional intestinal bioavailability of 5-HTP in humans.
(§1) 5-HTP dosing: The free base form of 5-HTP was used (5-HTP has a water solubility of >10 mg/mL).
Colonic: 5-HTP free base saline solution 200 mg.
Intravenous: 5-HTP free base saline solution 50 mg.
Oral/Upper GI: Two 5-HTP gelatin tablets of 100 mg 5-HTP free base (200 mg total dose).
Subjects: Healthy male and female volunteers aged 18 to 65 years with a body mass index (BMI) of 19 to 28 were eligible for the study. Subjects were admitted to the investigational medical unit (IMU) 2 h before 5-HTP administration and remained at the IMU for 24 h following, for blood sampling and safety assessment. […]
Plasma samples analysis: Plasma samples were stored at −80° C. until analysis. 5-HTP and the metabolite 5-hydroxyindole-acetic-acid (5-HIAA) were quantified by liquid chromatography with mass-spectrometry detection.
Data analysis: The PK data were analyzed using noncompartmental (NCA) and compartmental (mixed effects) mathematical modelling approaches, to calculate area 5-HTP plasma under the curve (AUC) for each subject for each 5-HTP administration.
Results: The human bioavailability of 5-HTP via the various routes of administration above was established in human subjects by administering 5-HTP through these various routes and quantifying the resultant 5-HTP plasma levels at various time points. […]

[2] = Release rate calculation Rinput=(Css×Vd×kel)/F, Scenario 1 (5-HTP without peripheral decarboxylase inhibitor); set-up: species or system human
Excerpt: As calculated above, the relative upper GI tract:colon bioavailability was 20% (corresponding to an absolute colonic bioavailability of 4%). Based on the above, according to general teachings in the field of sustained-release drug delivery (Sutton S C. The use of gastrointestinal intubation studies for controlled release development. Br J Clin Pharmacol. 2009 September; 68[3]: 342-54) it is concluded that gastroretentive technologies are needed in order to achieve a desirable extended release profile of 5-HTP together with a desirable sustained and therapeutically active 5-HTP plasma level profile. Further, the determination of the oral bioavailability (Fpo) enables computation of the delivery rate of 5-HTP needed from the dosage form to achieve a given plasma level of 5-HTP at steady state. Moreover, computation of the resultant plasma levels of 5-HTP can be done for embodiments where a peripheral decarboxylase inhibitor (with different levels of effects on 5-HTP bioavailability and elimination half-life) is included in the dosage form.
The desired release rate profile was calculated as follows, for a dosage form disclosed in the present invention when administering 5-HTP without a peripheral decarboxylase inhibitor:
Substituting, we get Rinput=˜25 mg/hr, to achieve average steady-state plasma concentrations of 5-HTP of 1 mg/L (1000 ng/ml).

[3] = mice; cited from earlier work
[4] = co-administration of 5-HTP and a peripheral decarboxylase inhibitor, in some cases; cited from earlier work
[5] = Water solubility of 5-HTP free base; type: physicochemical; conditions: free base form
Method: as §1

Q: Which results are given for `N[C@@H](Cc1c[nH]c2ccc(O)cc12)C(=O)O` [5-HTP, 5-hydroxytryptophan]?
A: bioavailability [1]: 4%; Rinput, release rate of 5-HTP needed for average steady-state plasma concentration of 1 mg/L (1000 ng/ml) ([2]; Scenario 1: F ~0.2 oral, Vd ~10 L, kel 0.462 h^−1, no peripheral decarboxylase inhibitor): ~25 mg/h; kel, elimination rate constant ([2]; calculated from plasma half-life of 1.5 hrs): 0.462 h⁻¹; absorption in the colon [3]: very effectively absorbed; increase of plasma 5-HTP levels by co-administration of a peripheral decarboxylase inhibitor [4]: one-fold to about fifteen-fold; solubility [5]: > 10000 µg/mL
